The source made the active and inactive calls.
Key:
CHO = assay: cytotoxicity in TLR9-MyD88 CHO cells, dose response, cytotoxicity control for TLR9-MyD88 binding inhibitor project, cell-based, luminescence (AID 588339); assay type: functional, hamster; conditions: Cricetulus griseus;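 also: CHO cells stably coexpressing TLR9 and MyD88 fusions from primary screen; compound exposure lasted 48 hours before viability readout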
[1] = HepG2 cell cytotoxicity, dose response, cytotoxicity control for Shn3 inhibitor project, CellTiter-Glo, cherry-picked (AID 624134); assay type: functional, cell-based
[2] = target: T1, Ubiquitin-conjugating enzyme E2 N (Homo sapiens, UniProt P61088); assay type: functional
T1 sequence (P61088 whole entry): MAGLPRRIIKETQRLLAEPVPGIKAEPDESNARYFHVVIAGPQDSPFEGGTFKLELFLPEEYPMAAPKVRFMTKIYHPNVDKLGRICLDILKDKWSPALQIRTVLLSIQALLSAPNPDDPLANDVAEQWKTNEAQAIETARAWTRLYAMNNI

[3] = target: T2, Microphthalmia-associated transcription factor (Homo sapiens, UniProt O75030); assay: TRPM1 promoter luciferase signal decrease, dose response, MITF inhibitor project, cell-based, SK-MEL-5, cherry-picked, set 3 (AID 493073); assay type: functional
T2 sequence (O75030 whole entry): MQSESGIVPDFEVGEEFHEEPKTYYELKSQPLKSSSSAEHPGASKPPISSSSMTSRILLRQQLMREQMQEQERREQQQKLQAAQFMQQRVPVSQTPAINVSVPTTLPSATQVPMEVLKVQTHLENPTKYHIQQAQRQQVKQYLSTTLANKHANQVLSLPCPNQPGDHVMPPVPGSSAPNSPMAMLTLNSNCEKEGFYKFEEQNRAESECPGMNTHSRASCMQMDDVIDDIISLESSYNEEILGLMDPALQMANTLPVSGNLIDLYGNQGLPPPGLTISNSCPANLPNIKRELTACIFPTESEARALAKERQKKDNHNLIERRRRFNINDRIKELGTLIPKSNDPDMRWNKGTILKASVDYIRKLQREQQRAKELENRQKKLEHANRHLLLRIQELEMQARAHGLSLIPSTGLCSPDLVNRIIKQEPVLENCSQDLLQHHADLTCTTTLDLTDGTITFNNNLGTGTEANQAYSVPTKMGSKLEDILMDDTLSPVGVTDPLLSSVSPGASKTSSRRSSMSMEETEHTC

Beta Lactamase = Beta Lactamase (Pseudomonas aeruginosa, UniProt Q932Y6); assay: beta-lactamase reporter inhibitor potency, dose response, artefact control for TLR9-MyD88 binding inhibitor project, BLA reporter cells, FRET fluorescence (AID 588341); assay type: cell-based;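 also: cell based assay in CHO-K1 cells stably expressing beta-lactamase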
[4] = target: T1, Ubiquitin-conjugating enzyme E2 N; assay type: functional; remark: listed apart in the source
[5] = Luminescence Cell-Based Dose Retest to Confirm Inhibitors of Cancer Stem Cells. [Related pubchem assays (depositor defined):AID2717, AID2721]; assay type: functional; conditions: Homo sapiens
Bcl-2-related protein A1 = target: T3, Bcl-2-related protein A1 (Mus musculus, UniProt Q07440); assay type: functional;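 also: confirmatory dose–response counterscreen on Bfl-1, used to check hits from a UBC13 polyubiquitin inhibitor campaign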
T3 sequence (Q07440 whole entry): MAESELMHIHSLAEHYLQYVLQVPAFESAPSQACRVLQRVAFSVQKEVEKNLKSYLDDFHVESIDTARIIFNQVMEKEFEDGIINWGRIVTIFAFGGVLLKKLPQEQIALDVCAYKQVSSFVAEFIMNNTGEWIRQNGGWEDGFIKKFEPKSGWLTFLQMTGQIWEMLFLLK

[6] = Shn3 3'UTR reporter inhibitors, dose response, cell-based, Clone20 osteoblasts, firefly luciferase, cherry-picked (AID 624132); assay type: functional;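 also: firefly luciferase luminescence from reporter carrying the Shn3 3'UTR in osteoblasts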
Protein RecA = target: T4, Protein RecA (Mycobacterium tuberculosis, UniProt P9WHJ3); assay: Fluorescence Cell-Free Homogeneous Dose Retest to Identify Inhibitors of RecA-Intein Splicing Activity. [Related pubchem assays (depositor defined):AID2097, AID2223, AID489010, AID492950]; assay type: functional
T4 sequence (P9WHJ3 whole entry): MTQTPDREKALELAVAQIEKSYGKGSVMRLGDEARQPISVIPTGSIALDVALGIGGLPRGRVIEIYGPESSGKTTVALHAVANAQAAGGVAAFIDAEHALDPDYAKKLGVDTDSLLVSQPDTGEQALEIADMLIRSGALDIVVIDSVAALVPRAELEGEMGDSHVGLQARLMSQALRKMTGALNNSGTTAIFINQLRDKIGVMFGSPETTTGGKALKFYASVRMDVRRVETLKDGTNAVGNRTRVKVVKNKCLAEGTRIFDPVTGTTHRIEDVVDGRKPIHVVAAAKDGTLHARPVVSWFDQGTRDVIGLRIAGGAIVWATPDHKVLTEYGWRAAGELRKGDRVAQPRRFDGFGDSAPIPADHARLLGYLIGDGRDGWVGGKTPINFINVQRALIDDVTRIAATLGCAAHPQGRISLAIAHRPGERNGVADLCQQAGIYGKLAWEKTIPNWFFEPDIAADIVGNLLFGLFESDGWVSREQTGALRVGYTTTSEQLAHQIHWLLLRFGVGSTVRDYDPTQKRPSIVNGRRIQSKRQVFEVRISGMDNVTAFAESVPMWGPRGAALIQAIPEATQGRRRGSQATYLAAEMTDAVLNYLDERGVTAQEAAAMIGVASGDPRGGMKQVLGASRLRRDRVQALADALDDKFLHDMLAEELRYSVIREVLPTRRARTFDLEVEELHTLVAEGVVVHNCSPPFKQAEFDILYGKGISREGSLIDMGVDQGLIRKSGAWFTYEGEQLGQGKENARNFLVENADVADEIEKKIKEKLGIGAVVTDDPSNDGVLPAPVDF

[7] = target: T5, Replicative DNA helicase DnaB (Mycobacterium tuberculosis, UniProt P9WMR3); assay: DnaB intein splicing inhibitors, dose response, biochemical, cell-free fluorescence (AID 449749); assay type: functional
T5 sequence (P9WMR3 whole entry): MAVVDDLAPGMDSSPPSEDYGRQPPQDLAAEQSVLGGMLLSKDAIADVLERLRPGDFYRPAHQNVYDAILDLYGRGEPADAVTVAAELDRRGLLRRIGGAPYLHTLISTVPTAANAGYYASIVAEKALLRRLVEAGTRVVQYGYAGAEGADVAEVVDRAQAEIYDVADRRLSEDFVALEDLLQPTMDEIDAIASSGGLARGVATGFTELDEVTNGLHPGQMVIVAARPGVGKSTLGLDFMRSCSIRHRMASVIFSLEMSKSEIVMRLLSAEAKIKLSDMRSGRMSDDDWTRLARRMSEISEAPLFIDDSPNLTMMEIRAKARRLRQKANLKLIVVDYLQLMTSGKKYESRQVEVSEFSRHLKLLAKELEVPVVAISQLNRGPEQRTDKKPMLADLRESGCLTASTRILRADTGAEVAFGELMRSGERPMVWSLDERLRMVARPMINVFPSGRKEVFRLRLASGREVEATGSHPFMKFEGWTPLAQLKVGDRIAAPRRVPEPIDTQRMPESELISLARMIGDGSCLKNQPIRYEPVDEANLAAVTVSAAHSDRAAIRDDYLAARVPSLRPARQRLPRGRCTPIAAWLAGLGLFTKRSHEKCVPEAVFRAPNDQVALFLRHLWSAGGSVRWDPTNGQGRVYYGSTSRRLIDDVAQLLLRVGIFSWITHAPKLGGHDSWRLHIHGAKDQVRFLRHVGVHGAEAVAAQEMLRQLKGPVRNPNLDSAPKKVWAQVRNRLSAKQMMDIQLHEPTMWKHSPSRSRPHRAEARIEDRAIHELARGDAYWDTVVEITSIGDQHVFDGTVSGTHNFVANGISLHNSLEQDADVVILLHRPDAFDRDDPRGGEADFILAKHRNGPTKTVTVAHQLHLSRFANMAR

Genome polyprotein = Genome polyprotein (dengue virus type 2, UniProt P29990); assay: Dengue-2 NS5 methyltransferase inhibitors, primary screen, biochemical, confirmation dose response (AID 588689); assay type: functional
[8] = control 3'UTR Renilla luciferase suppression, dose response, counter-screen for Shn3 inhibitor project, cell-based, Clone20-Shn3RL, cherry-picked (AID 624133); assay type: functional
HeLa = assay: HeLa cell cytotoxicity, dose response, cytotoxicity control for MITF activator project, CellTiter-Glo luminescence, cherry-pick samples (AID 540259); assay type: functional, cell-based; conditions: Homo sapiens
Protein Wnt-3a = Protein Wnt-3a (Mus musculus, UniProt P27467); assay: Wnt3a-driven reporter signaling inhibition, dose response, selectivity assay for Gli-SUFU antagonist project, Wnt-LIGHT cells, luminescence (AID 651570); assay type: functional; conditions: read-out: IC50_Mean;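 also: Wnt-LIGHT reporter cells stimulated with conditioned medium from Wnt3a-producing cells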
[9] = target: 72 kDa type IV collagenase (Homo sapiens, UniProt P08253); assay: Dose Response validation of uHTS RPN11 inhibitor hits using a MMP-2 Fluorescence assay.; assay type: functional
[10] = target: 26S proteasome non-ATPase regulatory subunit 14 (Homo sapiens, UniProt O00487); assay: inhibition of proteasome subunit RPN11 – biochemical, fluorescence polarization, uHTS hits, confirmation (AID 602368); assay type: functional
Prothrombin = Prothrombin (Bos taurus, UniProt P00735); assay: thrombin inhibition, dose response, biochemical, fluorescence polarization, uHTS hits (AID 602369); assay type: functional
[11] = target: T6, Carboxy-terminal domain RNA polymerase II polypeptide A small phosphatase 1 (Homo sapiens, UniProt Q9GZU7); assay: inhibitors of CTDSP1, concentration-response testing, biochemical assay, absorbance-based, actives from ultra-high-throughput screening (AID 540297); assay type: functional
T6 sequence (Q9GZU7 whole entry): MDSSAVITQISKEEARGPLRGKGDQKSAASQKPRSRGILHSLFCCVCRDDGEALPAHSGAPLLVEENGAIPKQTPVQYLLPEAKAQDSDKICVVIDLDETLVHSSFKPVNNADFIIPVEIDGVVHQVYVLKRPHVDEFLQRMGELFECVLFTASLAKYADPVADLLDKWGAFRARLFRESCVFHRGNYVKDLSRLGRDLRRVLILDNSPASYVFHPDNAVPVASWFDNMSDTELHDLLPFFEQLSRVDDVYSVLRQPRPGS

[12] = Counterscreen for activators of the function of SWI/SNF related, matrix associated, actin dependent regulator of chromatin, subfamily a, member 2 (SMARCA2, BRM): Luminescence-based cell-based high throughput dose response assay to identify non-selective compounds using the VP16 reporter assay.; assay type: functional
[13] = target: SWI/SNF-related matrix-associated actin-dependent regulator of chromatin subfamily A member 2 (Homo sapiens, UniProt P51531); assay: Luminescence-based cell-based high throughput dose response assay to identify activators of the function of SWI/SNF related, matrix associated, actin dependent regulator of chromatin, subfamily a, member 2 (SMARCA2, BRM).; assay type: functional
Sequence of SWI/SNF-related matrix-associated actin-dependent regulator of chromatin subfamily A member 2 (P51531 whole entry): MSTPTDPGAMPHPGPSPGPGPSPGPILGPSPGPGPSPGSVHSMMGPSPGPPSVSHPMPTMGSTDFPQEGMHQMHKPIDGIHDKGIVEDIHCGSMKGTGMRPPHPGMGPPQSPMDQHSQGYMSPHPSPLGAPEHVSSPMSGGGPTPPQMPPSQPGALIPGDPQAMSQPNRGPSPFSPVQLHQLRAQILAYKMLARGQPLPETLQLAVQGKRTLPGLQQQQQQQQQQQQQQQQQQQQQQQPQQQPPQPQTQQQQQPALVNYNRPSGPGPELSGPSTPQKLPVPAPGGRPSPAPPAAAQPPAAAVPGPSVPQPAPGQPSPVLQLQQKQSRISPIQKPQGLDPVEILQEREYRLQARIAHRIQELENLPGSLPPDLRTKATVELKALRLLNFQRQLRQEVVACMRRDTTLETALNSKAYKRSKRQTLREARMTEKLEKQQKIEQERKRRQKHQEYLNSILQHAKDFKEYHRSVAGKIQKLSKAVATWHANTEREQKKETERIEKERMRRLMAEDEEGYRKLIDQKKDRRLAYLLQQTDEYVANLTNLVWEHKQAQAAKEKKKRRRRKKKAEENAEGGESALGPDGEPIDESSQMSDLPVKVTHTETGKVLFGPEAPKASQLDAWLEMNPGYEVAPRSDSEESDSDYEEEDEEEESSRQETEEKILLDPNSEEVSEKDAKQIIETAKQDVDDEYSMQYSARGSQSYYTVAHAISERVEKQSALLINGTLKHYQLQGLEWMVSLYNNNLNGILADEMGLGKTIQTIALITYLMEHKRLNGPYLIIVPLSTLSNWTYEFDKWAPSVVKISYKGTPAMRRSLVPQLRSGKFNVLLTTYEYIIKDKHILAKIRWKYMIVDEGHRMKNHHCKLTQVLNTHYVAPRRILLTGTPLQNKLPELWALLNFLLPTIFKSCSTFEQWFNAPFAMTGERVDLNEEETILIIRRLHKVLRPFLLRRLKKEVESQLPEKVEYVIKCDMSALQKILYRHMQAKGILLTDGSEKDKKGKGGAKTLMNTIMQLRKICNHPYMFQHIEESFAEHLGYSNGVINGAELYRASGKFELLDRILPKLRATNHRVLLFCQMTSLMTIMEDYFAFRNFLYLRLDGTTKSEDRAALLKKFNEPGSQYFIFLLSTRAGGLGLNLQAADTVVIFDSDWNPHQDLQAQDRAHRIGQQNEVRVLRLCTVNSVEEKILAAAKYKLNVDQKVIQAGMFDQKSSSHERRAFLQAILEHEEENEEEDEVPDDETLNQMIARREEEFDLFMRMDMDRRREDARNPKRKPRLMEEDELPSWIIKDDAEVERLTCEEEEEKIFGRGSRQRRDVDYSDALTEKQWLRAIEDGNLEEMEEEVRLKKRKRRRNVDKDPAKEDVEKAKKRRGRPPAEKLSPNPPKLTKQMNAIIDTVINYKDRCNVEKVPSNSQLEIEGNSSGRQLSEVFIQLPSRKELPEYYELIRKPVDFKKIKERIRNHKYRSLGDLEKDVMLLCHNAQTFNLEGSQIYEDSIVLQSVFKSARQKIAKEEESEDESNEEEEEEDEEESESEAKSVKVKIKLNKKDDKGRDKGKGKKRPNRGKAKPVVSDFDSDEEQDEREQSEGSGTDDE

Sequence of Protein Wnt-3a (P27467 whole entry): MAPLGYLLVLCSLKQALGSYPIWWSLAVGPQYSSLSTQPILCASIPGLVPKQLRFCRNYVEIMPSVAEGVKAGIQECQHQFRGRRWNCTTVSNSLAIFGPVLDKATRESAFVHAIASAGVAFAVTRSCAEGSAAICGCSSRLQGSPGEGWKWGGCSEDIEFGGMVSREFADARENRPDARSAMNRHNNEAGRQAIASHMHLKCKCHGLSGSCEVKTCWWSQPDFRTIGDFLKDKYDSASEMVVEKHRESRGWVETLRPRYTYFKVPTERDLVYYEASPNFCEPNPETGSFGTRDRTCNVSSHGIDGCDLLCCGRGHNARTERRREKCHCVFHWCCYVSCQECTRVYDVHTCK
Sequence of Beta Lactamase (Q932Y6 whole entry): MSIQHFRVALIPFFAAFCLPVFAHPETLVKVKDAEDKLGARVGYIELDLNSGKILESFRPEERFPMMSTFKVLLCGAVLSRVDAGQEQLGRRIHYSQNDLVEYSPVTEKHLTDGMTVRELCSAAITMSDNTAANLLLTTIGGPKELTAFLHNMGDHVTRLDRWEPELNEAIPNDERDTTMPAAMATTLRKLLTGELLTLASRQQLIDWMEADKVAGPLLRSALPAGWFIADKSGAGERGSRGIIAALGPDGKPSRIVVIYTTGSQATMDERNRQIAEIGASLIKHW
Sequence of 72 kDa type IV collagenase (P08253 whole entry): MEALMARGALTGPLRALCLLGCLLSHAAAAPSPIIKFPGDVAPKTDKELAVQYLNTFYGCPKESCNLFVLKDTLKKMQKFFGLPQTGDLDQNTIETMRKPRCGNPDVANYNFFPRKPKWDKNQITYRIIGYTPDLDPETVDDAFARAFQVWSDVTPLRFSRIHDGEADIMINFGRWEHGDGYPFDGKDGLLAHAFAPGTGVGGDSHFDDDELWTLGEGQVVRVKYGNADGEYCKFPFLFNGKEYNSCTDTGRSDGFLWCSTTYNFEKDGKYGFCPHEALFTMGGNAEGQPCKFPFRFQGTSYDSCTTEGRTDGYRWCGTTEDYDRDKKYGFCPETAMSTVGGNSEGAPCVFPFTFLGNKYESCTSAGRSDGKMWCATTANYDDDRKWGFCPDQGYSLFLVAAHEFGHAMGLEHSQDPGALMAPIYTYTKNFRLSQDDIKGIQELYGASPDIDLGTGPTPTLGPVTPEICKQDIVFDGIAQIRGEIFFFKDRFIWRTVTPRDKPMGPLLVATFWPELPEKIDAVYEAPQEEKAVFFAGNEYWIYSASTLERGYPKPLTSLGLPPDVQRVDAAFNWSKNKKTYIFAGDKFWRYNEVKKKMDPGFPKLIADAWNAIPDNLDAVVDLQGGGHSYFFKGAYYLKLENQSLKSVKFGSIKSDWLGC
Sequence of 26S proteasome non-ATPase regulatory subunit 14 (O00487 whole entry): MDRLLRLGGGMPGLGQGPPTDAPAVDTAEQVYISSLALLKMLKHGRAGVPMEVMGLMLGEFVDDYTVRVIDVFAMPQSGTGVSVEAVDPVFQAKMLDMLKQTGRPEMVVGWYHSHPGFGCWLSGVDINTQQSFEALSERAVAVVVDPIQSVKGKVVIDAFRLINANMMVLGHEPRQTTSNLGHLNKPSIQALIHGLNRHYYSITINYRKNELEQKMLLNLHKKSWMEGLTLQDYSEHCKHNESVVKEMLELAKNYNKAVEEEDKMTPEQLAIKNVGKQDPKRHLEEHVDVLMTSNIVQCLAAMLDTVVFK
Sequence of Genome polyprotein (P29990 2492-3391 limits assumed): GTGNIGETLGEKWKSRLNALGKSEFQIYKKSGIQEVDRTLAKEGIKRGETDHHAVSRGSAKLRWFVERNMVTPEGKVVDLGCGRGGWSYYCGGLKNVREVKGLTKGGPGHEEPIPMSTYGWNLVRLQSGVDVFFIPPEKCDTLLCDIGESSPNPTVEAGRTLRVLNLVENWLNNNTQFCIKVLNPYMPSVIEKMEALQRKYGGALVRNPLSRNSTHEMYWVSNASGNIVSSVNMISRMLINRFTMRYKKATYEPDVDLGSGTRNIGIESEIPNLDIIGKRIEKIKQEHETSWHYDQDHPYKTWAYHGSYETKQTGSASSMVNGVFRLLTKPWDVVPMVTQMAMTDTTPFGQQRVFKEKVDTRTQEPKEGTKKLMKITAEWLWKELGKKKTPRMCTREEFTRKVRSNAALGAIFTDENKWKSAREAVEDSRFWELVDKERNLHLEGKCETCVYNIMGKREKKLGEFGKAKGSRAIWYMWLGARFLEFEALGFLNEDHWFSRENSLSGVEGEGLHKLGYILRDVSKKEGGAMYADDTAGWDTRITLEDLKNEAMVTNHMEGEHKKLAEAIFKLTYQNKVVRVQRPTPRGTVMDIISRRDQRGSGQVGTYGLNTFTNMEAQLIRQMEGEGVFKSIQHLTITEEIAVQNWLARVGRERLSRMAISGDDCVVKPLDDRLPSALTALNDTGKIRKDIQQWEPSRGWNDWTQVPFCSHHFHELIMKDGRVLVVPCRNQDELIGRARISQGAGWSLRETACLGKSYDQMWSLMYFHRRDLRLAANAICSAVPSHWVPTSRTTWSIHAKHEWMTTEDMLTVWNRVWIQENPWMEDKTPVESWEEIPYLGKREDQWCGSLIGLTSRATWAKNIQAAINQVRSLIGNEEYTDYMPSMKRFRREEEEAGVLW

CS(=O)(=O)c1ncc(Cl)c(C(=O)Nc2ccc(N3CCOCC3)cc2)n1
IC50 (CHO): 4.79 µM (active)
AC50 [1]: 24 µM (active)
IC50 [2]: > 20 µM (inactive)
AC50 [3]: 22.8 µM (active)
IC50 (Beta Lactamase): 10.2 µM (inactive)
IC50 [4]: 14.9 µM (active)
AC50 [5]: 5.14 µM (active)
IC50 (Bcl-2-related protein A1): > 20 µM (inactive)
AC50 [6]: 1.21 µM (active)
EC50 (Protein RecA): 12.8 µM (active)
AC50 [7]: 4.51 µM (active)
IC50 (Genome polyprotein): > 100 µM (active)
AC50 [8]: 12.9 µM (active)

O=c1nc2sc3ccccc3n2c(=O)n1-c1ccc(Cl)cc1
AC50 (HeLa): 43.9 µM (active)

Cc1ccc(C(=O)Nc2cccc(O)c2)cc1S(=O)(=O)N1CCCCCC1
AC50 (HeLa): 321 µM (active)

Cc1cc(NC(=O)CSc2nc3c4ccccc4nc-3c(O)n2-c2ccccc2F)no1
IC50 (Protein Wnt-3a): 6.29 µM (active)

c1ccc(C[n+]2cccc(-c3ccccc3)c2)cc1
IC50 (Protein Wnt-3a): 44.8 µM (inactive)

Cc1ccc(CNC(=O)c2nnn(CC(=O)Nc3cc(C)cc(C)c3)c2N)cc1
IC50 [9]: > 100 µM (inactive)
IC50 [10]: 35.4 µM (active)
IC50 (Prothrombin): 76.5 µM (active)

Cc1ccc(NC(=O)/C=C/c2ccco2)cc1S(=O)(=O)N1CCCCCC1
IC50 (Protein Wnt-3a): 17.7 µM (active)

O=C1NC2c3c(Cl)sc(Cl)c3C(=O)C2O1 (centres undefined)
IC50 [11]: 3.75 µM (active)
EC50 [12]: > 91 µM (inactive)
EC50 [13]: > 91 µM (inactive)
